Molecular target: T1, human IGF-IR (Homo sapiens, UniProt P08069)
T1 construct: complete human IGF-IR cDNA: GenBank Acc; No. NM_000875; expressed in transfected cells; host or cells: NIH-3T3 mouse fibroblasts
Experiment: cellular Capture ELISA: IGF-I induced autophosphorylation of IGF-IR in NIH-3T3 cells transfected with human IGF-IR
Type: cell-based
Conditions: by the methods described above
Procedure: In this assay the activity of the compounds of the invention against Insulin-like growth factor I (IGF-1) induced autophosphorylation of the IGF-IR is determined. The assay is conducted as follows: For the assay NIH-3T3 mouse fibroblasts transfected with human IGF-IR cDNA (complete human IGF-IR cDNA: GenBank Acc. No. NM_000875), prepared as described in Kato et al., J. Biol. Chem. 268, 2655-61, 1993, are used. The cells which overexpress human IGF-IR are cultured in Dulbecco's minimal essential (DMEM) medium, containing 10% Fetal Calf Serum (FCS). For the assay 5,000 cells/well are plated on day 1 on 96-well plates (Costar #3595) in normal growth medium and incubated for 2 days at 37° C. in a standard CO2 cell incubator. […] On day 3 the medium is discarded and the cells are incubated for 24 h in minimal medium (DMEM, containing 0.5% FCS). […]
90 μl/well AP substrate (CDP-Star; obtained from Tropix; Cat. No.: MS100RY) are then added and the plates are incubated for 45 min at RT in the dark, followed by measuring AP activity in a Packard Top Count Microplate Scintillation Counter. The IC50 values for the compounds of formula I are calculated via linear regression analysis using the GraphPad Instat program (GraphPad Software, USA). […]

T1 sequence (P08069 31-1367): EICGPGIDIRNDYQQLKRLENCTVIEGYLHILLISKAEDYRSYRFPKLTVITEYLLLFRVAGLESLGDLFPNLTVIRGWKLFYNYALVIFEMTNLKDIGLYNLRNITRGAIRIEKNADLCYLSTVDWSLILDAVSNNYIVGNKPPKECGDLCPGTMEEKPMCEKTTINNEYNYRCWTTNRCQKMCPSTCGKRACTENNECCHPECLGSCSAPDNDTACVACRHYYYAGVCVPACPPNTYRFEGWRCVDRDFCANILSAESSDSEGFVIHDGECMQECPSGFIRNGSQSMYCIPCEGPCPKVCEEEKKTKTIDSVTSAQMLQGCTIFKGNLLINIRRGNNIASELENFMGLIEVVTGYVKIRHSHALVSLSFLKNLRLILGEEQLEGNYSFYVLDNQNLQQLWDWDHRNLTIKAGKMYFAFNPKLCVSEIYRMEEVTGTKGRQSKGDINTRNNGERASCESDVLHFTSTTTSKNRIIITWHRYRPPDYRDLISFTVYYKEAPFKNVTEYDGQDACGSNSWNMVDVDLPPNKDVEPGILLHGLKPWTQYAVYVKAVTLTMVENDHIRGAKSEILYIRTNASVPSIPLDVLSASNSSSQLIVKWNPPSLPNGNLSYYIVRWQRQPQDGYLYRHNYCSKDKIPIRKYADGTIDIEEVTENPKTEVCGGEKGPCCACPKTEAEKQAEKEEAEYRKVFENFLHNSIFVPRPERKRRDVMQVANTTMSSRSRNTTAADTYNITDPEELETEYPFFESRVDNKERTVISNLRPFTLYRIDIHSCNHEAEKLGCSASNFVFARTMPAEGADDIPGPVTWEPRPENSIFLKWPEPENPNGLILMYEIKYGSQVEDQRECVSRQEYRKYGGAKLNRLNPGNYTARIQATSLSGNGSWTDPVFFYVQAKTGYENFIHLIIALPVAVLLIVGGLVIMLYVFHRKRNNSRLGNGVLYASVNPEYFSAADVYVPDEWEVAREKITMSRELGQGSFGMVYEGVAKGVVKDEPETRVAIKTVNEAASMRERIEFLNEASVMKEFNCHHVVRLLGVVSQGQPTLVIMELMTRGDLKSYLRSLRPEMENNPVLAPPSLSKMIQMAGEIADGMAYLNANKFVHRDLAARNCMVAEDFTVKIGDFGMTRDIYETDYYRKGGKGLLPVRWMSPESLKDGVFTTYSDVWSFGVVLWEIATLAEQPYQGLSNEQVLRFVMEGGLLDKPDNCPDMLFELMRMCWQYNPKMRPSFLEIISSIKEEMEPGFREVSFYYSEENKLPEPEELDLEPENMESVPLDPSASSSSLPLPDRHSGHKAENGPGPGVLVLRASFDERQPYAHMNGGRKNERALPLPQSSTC

inhibition of IGF-1R (in words): shows inhibition
SMILES: CN(C)CCOc1ccc(Nc2nccc(-c3c[nH]nc3-c3ccc(OCc4ccccc4)cc3)n2)cc1 [Example 6, {4-[3-(4-Benzyloxy-phenyl)-1H-pyrazol-4-yl]-pyrimidin-2-yl}-[4-(2-dimethylamino-ethoxy)-phenyl]-amine]

Source: patent US20090149469A1, “Phenyl-[4-(3-phenyl-1h-pyrazol-4-yl)-pyrimidin-2-yl]-amine derivatives as igf-ir inhibitors” (priority 2004, published 2009)
